Non-standard residues stand in square brackets, D forms with d. Residues, ends and D or L forms follow the SMILES beside them. *: point of attachment. NMeI = CC[C@H](C)[C@H](NC)C(=O)O; NMeV = CN[C@H](C(=O)O)C(C)C; X2 = C[S+]([O-])/C=C/C(=O)*; NMeA = CN[C@@H](C)C(=O)O; X1 = O=C(/C=C/c1ccccc1)*
System: P388
Test: Cytotoxicity against mouse P388 cells
Format: functional, cell-based

| Compound | IC50 [nM] |
| --- | --- |
| CC[C@H](C)[C@@H](C(=O)NC)N(C)C(=O)[C@@H](NC(=O)[C@H](C(C)C)N(C)C(=O)[C@H]([C@@H](C)CC)N(C)C(=O)[C@H](C)N(C)C(=O)/C=C/c1ccccc1)C(C)C [PTERULAMIDE IV] (X1-[NMeA][NMeI][NMeV]V[NMeI]-NHMe) | 1330 |
| CC[C@H](C)[C@@H](C(=O)NC)N(C)C(=O)[C@@H](NC(=O)[C@H](C(C)C)N(C)C(=O)[C@H]([C@@H](C)CC)N(C)C(=O)[C@H](C)N(C)C(=O)/C=C/[S+](C)[O-])C(C)C (some centres not stated) [PTERULAMIDE I] (X2-[NMeA][NMeI][NMeV]V[NMeI]-NHMe) | 790 |
